Test results reported in ChEMBL document CHEMBL4842381, “A Novel, Selective c-Abl Inhibitor, Compound 5, Prevents Neurodegeneration in Parkinson's Disease” (J Med Chem, 2021).

Tests used:
[1] = in vivo; settings: ICR, mouse, brain/plasma, po, 5 mg/kg
[2] = in vivo; settings: ICR, mouse, plasma, po, 5 mg/kg
[3] = in vivo; settings: ICR, mouse, plasma, po, 5 mg/kg; remark: listed apart in the source
[4] = in vivo; settings: ICR, mouse, plasma, po, 5 mg/kg; remark: listed apart in the source
[5] = in vivo; settings: ICR, mouse, plasma, po, 5 mg/kg; remark: listed apart in the source

Compound | Kp uu at 24 h [1] | Cmax at 24 h [2] | half-life at 24 h [3] | Tmax at 24 h [4] | AUC(0-inf) at 24 h [5]
Cc1c(F)cncc1-c1ccc2nc(NC(=O)[C@@H]3C[C@@H]3F)sc2c1 | 0.21 | 4260 ng/mL | 1.8 h | 1.2 h | 25000 ng·h/mL
Cc1cn(-c2cc(NC(=O)c3ccc(C)c(Nc4nccc(-c5cccnc5)n4)c3)cc(C(F)(F)F)c2)cn1 [NILOTINIB] |  |  |  | 1 h | 
